Experimental findings from US20230293517A1, “ANTAGONIST COMPOUNDS” (AdoRx Therapeutics Limited, priority 2020, published 2023) are described below.

Test [1] concerns the target human Adenosine A2b receptor (Homo sapiens (Human), UniProt P29275). Put plainly: Adenosine receptor TR-FRET binding assay (A2b). The method, then:
(§1) Biological Example 1—Adenosine Receptor Time-Resolved Fluorescence Resonance Energy Transfer (TRFRET) Binding Assay
(§2) All FRET binding experiments were conducted at room temperature in white 384-well plates, in assay binding buffer containing 1×LabMed (Cisbio, France), 100 μg/mL saponin, 1% DMSO and 0.02% pluronic acid. Binding of the fluorescently labelled Adenosine receptor antagonist XAC (CA200645, FRET acceptor) to terbium-labelled A1, A2a, A2b and A3 adenosine receptors (FRET donors) was detected by time-resolved FRET due to the close proximity of the donor and acceptor in a binding event. To investigate the ability of unlabelled test compounds to bind to Adenosine A1, A2a, A2b and A3 receptors, dose response curves were constructed that determined the ability of a range of concentrations to inhibit the binding of 30 nM CA200645 to the A2b receptor and 100 nM CA200645 to the A1, A2a, and A3 receptor.
(§3) Serial dilution (1:3 dilutions) of test compounds in neat DMSO and transfer of a 400 nL sample of test compound into the assay plate was carried out using the Mosquito (TTP Labtech, UK). The compound samples were incubated for 2 hours at room temperature with a fixed concentration of CA200645 defined for each receptor (see above) and CHO cell membranes containing the human Adenosine A1 (0.5 μg/well), A2a (0.3 μg/well), A2b (1 μg/well) or A3 (1 μg/well) receptor in 40 μL of assay buffer. Total and non-specific binding of CA200645 was determined in the absence and presence of 10 μM XAC, respectively. Following 2 hours incubation, the level of CA200645 binding was detected on a Pherastar FSX (BMG Labtech, Germany) using standard TR-FRET settings. The terbium donor was excited with three laser flashes at a wavelength of 337 nm, and donor and acceptor emission was detected at 620 nm and 665 nm wavelengths, respectively. FRET ratios were obtained by multiplying the acceptor/donor ratio value by 10,000. Specific binding was determined by subtracting the non-specific binding FRET ratio from the total binding FRET ratio. Compound IC50 curves were analysed using GraphPad Prism 7.0 (GraphPad, USA) and Ki affinity values were determined from the obtained IC50 values using the method of Cheng and Prusoff.
Background: In TR-FRET formats the signal depends on donor and acceptor labels being close together.

Test [2] addresses human Adenosine A2a receptor (Homo sapiens (Human), UniProt P29274). The test is described as follows: Adenosine receptor TR-FRET binding assay (A2a). The following applies: inhibition of binding of 100 nM CA200645, CHO cell membranes. The method, then: as §1, §2, §3
Test [3] concerns the target human Adenosine A1 receptor (Homo sapiens (Human), UniProt P30542). The test is described as follows: Adenosine receptor TR-FRET binding assay (A1). The following applies: inhibition of binding of 100 nM CA200645, CHO cell membranes. The method, then: as §1, §2, §3
Setting [4] is: TR-FRET, inhibition of binding of 30 nM CA200645, CHO cell membranes.

Where “and” joins values, the source holds several entries; their conditions need not be identical. Equal values may be shown once. Where a name gives a salt, the structure may show the parent alone. Read-outs that look alike come from different tables or passages of the source.

One may read the Ki as a dissociation constant, usually derived from enzyme kinetics or from competition with a known ligand.

Sequence of human Adenosine A2a receptor (P29274 whole entry): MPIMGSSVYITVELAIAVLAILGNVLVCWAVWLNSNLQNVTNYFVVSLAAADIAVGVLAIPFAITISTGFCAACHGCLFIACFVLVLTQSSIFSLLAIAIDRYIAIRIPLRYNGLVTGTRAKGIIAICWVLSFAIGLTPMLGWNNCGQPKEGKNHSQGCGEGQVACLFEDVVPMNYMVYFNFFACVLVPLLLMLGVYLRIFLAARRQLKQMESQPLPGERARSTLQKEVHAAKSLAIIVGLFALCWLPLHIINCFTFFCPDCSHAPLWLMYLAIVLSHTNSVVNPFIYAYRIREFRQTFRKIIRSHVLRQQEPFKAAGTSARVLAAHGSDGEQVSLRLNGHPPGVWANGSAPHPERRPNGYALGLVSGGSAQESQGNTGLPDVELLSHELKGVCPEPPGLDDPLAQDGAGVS
Sequence of human Adenosine A2b receptor (P29275 whole entry): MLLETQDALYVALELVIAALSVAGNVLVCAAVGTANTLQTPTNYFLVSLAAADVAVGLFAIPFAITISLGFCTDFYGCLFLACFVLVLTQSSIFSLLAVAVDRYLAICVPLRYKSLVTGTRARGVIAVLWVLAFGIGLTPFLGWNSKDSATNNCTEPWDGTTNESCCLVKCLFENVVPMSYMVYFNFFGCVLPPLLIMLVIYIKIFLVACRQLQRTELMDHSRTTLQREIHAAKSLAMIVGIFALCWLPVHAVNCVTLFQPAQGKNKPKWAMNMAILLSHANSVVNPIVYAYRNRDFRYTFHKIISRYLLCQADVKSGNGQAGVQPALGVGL
Sequence of human Adenosine A1 receptor (P30542 whole entry): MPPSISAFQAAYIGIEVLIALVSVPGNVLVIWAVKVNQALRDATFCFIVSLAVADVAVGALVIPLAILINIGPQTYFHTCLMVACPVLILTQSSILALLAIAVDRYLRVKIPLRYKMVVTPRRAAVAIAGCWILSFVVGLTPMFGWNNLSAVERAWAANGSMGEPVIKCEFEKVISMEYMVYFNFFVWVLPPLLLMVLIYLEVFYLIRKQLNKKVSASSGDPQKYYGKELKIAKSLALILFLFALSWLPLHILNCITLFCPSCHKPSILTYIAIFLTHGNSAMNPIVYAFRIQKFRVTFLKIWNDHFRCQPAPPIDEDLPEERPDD

For the molecule `Cc1cc(-c2sc(NC(=O)N3C[C@@H]4NCCO[C@H]4C3)nc2-c2cccc(C#N)c2)cc(C)n1` (racemic) [Example 14.3, rac-(4aS,7aS)—N-[4-(3-Cyanophenyl)-5-(2,6-dimethyl-4-pyridyl)thiazol-2-yl]-3,4,4a,5,7,7a-hexahydro-2H-pyrrolo[3,4-b][1,4]oxazine-6-carboxamide 2,2,2-trifluoroacetic acid salt], the inhibition constant (Ki) came to 7.6 nM in test [1] and 3.49 nM in test [2].

With `Cc1cc(-c2sc(NC(=O)N3C[C@@H](C)NC[C@@H]3C)nc2-c2cccc(C#N)c2)cc(C)n1` (relative stereo) [Example 7.11, trans-N-[4-(3-Cyanophenyl)-5-(2,6-dimethyl-4-pyridyl)thiazol-2-yl]-2,5-dimethyl-piperazine-1-carboxamide], the Ki in test [1] (setting [4]) amounted to 78.7 nM; in test [2] it was 12.8 nM; in test [3], 110 nM.

`Cc1cc(-c2sc(NC(=O)N3CCCC3CC(C)(C)O)nc2-c2cccc(C#N)c2)cc(Cl)n1` (stereo not shown) [Example 3.3]: the Ki in test [1] (setting [4]) was 3.9 nM; in test [2], 2.15 nM; in test [3] it was 136 nM.

For `Cc1cc(-c2sc(NC(=O)N3CCN(CC(C)(C)O)CC3)nc2-c2cccc(C#N)c2)cc(C)n1` [Example 4.34, N-[4-(3-Cyanophenyl)-5-(2,6-dimethyl-4-pyridyl)thiazol-2-yl]-4-(2-hydroxy-2-methyl-propyl)piperazine-1-carboxamide], the Ki turned out to be 13 nM in test [1] (setting [4]), 12.2 nM in test [2] and 268 nM in test [3].

As to `Cc1cc(-c2sc(NC(=O)N3CCC4(CCN4C)C3)nc2-c2cccc(C#N)c2)cc(C)n1` (stereo not shown) [Example 4.36, N-[4-(3-Cyanophenyl)-5-(2,6-dimethyl-4-pyridyl)thiazol-2-yl]-1-methyl-1,7-diazaspiro[3.4]octane-7-carboxamide formate salt], the Ki in test [1] (setting [4]) worked out at 13.8 nM; in test [2], 2.48 nM; in test [3] it was 316 nM.

In the case of `Cc1cc(-c2sc(NC(=O)N3CCN(C(C)(C)CO)CC3)nc2-c2cccc(C#N)c2)cc(C)n1` [Example 4.37, N-[4-(3-Cyanophenyl)-5-(2,6-dimethyl-4-pyridyl)thiazol-2-yl]-4-(2-hydroxy-1,1-dimethyl-ethyl)piperazine-1-carboxamide], the Ki in test [1] (setting [4]) stood at 27.1 nM; in test [2], 4.29 nM; in test [3], 545 nM.

With `Cc1cc(-c2sc(NC(=O)N3CCN4CCC[C@H]4C3)nc2-c2cccc(C#N)c2)cc(C)n1` [Example 4.38, (8aS)-N-[4-(3-Cyanophenyl)-5-(2,6-dimethyl-4-pyridyl)thiazol-2-yl]-3,4,6,7,8,8a-hexahydro-1H-pyrrolo[1,2-a]pyrazine-2-carboxamide formate salt], the Ki was 8.1 nM and 3.5 nM in test [1] (TR-FRET, inhibition of binding of 30 nM CA200645, CHO cell membranes, formate salt); 180 nM and 75 nM in test [3] (formate salt).

As for `Cc1cc(-c2sc(NC(=O)N3C[C@H]4CC[C@@H](C3)N(C)C4)nc2-c2cccc(C#N)c2)cc(C)n1` [Example 6.5, (1S,5S)-N-[4-(3-Cyanophenyl)-5-(2,6-dimethyl-4-pyridyl)thiazol-2-yl]-6-methyl-3,6-diazabicyclo[3.2.2]nonane-3-carboxamide], the Ki in test [1] (setting [4]) came to 23.1 nM; in test [2], 4.63 nM; in test [3] it was 93 nM.

Take `Cc1cc(-c2sc(NC(=O)N3CCC(C)(C#N)CC3)nc2-c2cccc(C#N)c2)cc(C2COC2)n1` [Example 6.111, 4-Cyano-N-[4-(3-cyanophenyl)-5-[2-methyl-6-(oxetan-3-yl)-4-pyridyl]thiazol-2-yl]-4-methyl-piperidine-1-carboxamide]: the Ki was 6.4 nM in test [1] (setting [4]), 0.2 nM in test [2] and 18 nM in test [3].

Turning to `Cc1cc(-c2sc(NC(=O)N3CC(N4CCOCC4)C3)nc2-c2cccc(C#N)c2)cc(C)n1` [Example 6.112, N-[4-(3-Cyanophenyl)-5-(2,6-dimethyl-4-pyridyl)thiazol-2-yl]-3-morpholino-azetidine-1-carboxamide], the figures for the Ki in test [1] (setting [4]), in test [2] and in test [3] were 23.6 nM, 4.3 nM and 339 nM, respectively.

As to `Cc1cc(-c2sc(NC(=O)N3CCN(C4CCOCC4)CC3)nc2-c2cccc(C#N)c2)cc(C)n1` [Example 6.113, N-[4-(3-Cyanophenyl)-5-(2,6-dimethyl-4-pyridyl)thiazol-2-yl]-4-tetrahydropyran-4-yl-piperazine-1-carboxamide diformate salt], the Ki was determined as 8.3 nM in test [1] (setting [4]), 10.8 nM in test [2] and 361 nM in test [3].

With `Cc1cc(-c2sc(NC(=O)N3CC(N4CCCC4)C3)nc2-c2cccc(C#N)c2)cc(C)n1` [Example 6.114, N-[4-(3-Cyanophenyl)-5-(2,6-dimethyl-4-pyridyl)thiazol-2-yl]-3-pyrrolidin-1-yl-azetidine-1-carboxamide], the results for the Ki in test [1] (setting [4]), in test [2] and in test [3] were 23 nM, 9.95 nM and 240 nM, respectively.

Consider `Cc1cc(-c2sc(NC(=O)N3CC(N(C)C)C3)nc2-c2cccc(C#N)c2)cc(C)n1` [Example 6.115, N-[4-(3-Cyanophenyl)-5-(2,6-dimethyl-4-pyridyl)thiazol-2-yl]-3-(dimethylamino)azetidine-1-carboxamide], for which the Ki in test [1] (setting [4]) stood at 29 nM; in test [2], 8 nM; in test [3] it was 177 nM.

Take `Cc1cc(-c2sc(NC(=O)N3CCC(CN4CCOCC4)CC3)nc2-c2cccc(C#N)c2)cc(C)n1` [Example 6.116, N-[4-(3-Cyanophenyl)-5-(2,6-dimethyl-4-pyridyl)thiazol-2-yl]-4-(morpholinomethyl)piperidine-1-carboxamide formate salt]: the inhibition constant Ki worked out at 10 nM in test [1] (setting [4]), 7.39 nM in test [2] and 281 nM in test [3].

Regarding `Cc1cc(-c2sc(NC(=O)N3CC4CN(C)CC43)nc2-c2cccc(C#N)c2)cc(C)n1` (stereo not shown) [Example 6.120, N-[4-(3-Cyanophenyl)-5-(2,6-dimethyl-4-pyridyl)thiazol-2-yl]-3-methyl-3,6-diazabicyclo[3.2.0]heptane-6-carboxamide], the Ki in test [1] (setting [4]) stood at 63.9 nM; in test [2] it was 11.1 nM; in test [3], 123 nM.

In the case of `Cc1cc(-c2sc(NC(=O)N3CCN4CCC3C4)nc2-c2cccc(C#N)c2)cc(C)n1` (stereo not shown) [Example 6.121, N-[4-(3-Cyanophenyl)-5-(2,6-dimethyl-4-pyridyl)thiazol-2-yl]-1,4-diazabicyclo[3.2.1]octane-4-carboxamide], the results for the Ki in test [1] (setting [4]), in test [2] and in test [3] were 6.8 nM, 1.94 nM and 123 nM, respectively.

For the molecule `Cc1cc(-c2sc(NC(=O)N3CCC4(CC3)CNCCO4)nc2-c2cccc(C#N)c2)cc(C)n1` [Example 7.3, N-[4-(3-Cyanophenyl)-5-(2,6-dimethyl-4-pyridyl)thiazol-2-yl]-1-oxa-4,9-diazaspiro[5.5]undecane-9-carboxamide], the Ki worked out at 5.7 nM in test [1] (setting [4]), 1.02 nM in test [2] and 208 nM in test [3].

Turning to `Cc1cc(-c2sc(NC(=O)N3C4CCC3CNC4)nc2-c2cccc(C#N)c2)cc(C)n1` [Example 7.4, N-[4-(3-Cyanophenyl)-5-(2,6-dimethyl-4-pyridyl)thiazol-2-yl]-3,8-diazabicyclo[3.2.1]octane-8-carboxamide], the Ki in test [1] (setting [4]) was found to be 13.5 nM; in test [2] it was 2.73 nM; in test [3] it was 58 nM.

As to `Cc1cc(-c2sc(NC(=O)N3C4CNCC3C4)nc2-c2cccc(C#N)c2)cc(C)n1` [Example 7.5, N-[4-(3-Cyanophenyl)-5-(2,6-dimethyl-4-pyridyl)thiazol-2-yl]-3,6-diazabicyclo[3.1.1]heptane-6-carboxamide], the Ki in test [1] (setting [4]) is 11.9 nM; in test [2] it was 1.26 nM; in test [3], 9 nM.

For the molecule `Cc1cc(-c2sc(NC(=O)N3C[C@H]4CC[C@@H]3CN4)nc2-c2cccc(C#N)c2)cc(C)n1` [Example 7.6, (1R,4R)—N-[4-(3-Cyanophenyl)-5-(2,6-dimethyl-4-pyridyl)thiazol-2-yl]-2,5-diazabicyclo[2.2.2]octane-2-carboxamide], the Ki in test [1] (setting [4]) came out at 22.6 nM; in test [2] it was 4.09 nM; in test [3] it was 162 nM.

As to `Cc1cc(-c2sc(NC(=O)N3C[C@H](C)NC[C@@H]3C)nc2-c2cccc(C#N)c2)cc(C)n1` [Example 7.7, (2S,5S)—N-[4-(3-Cyanophenyl)-5-(2,6-dimethyl-4-pyridyl)thiazol-2-yl]-2,5-dimethyl-piperazine-1-carboxamide], the Ki in test [1] (setting [4]) was determined as 18.2 nM; in test [2], 5.27 nM; in test [3], 49 nM.
